# In patent US11285156B2, “Substituted piperazines as KRAS G12C inhibitors” (Amgen Inc., priority 2018, dated 2022):
# Where two headings read alike, the source gives them in different places.
# Tests used:
# [1] = tested on: Phosphorylation of ERK1/2 in A549 cells; experiment: Phospho-ERK1/2 MSD assay in A549 cells; type: cell-based; conditions: read-out: p-ERK IC50 (2 h, A549; μM)
# Procedure: (§1) Phospho-ERK1/2 MSD Assay:
# (§2) MIA PaCa-2 (ATCC® CRL-1420™) and A549 (ATCC® CCL-185™) cells were cultured in RPMI 1640 Medium (ThermoFisher Scientific 11875093) containing 10% fetal bovine serum (ThermoFisher Scientific 16000044) and 1× penicillin-streptomycin-glutamine (ThermoFisher Scientific 10378016). Sixteen hours prior to compound treatment, MIA PaCa-2 or A549 cells were seeded in 96-well cell culture plates at a density of 25,000 cells/well and incubated at 37° C., 5% CO2. A compound dose-response titration was diluted in growth media, added to appropriate wells of a cell culture plate, and then incubated at 37° C., 5% CO2 for 2 or 4 hours (see Table 15). Following compound treatment, cells were stimulated with 10 ng/mL EGF (Roche 11376454001) for 10 min, washed with ice-cold Dulbecco's phosphate-buffered saline, no Ca2+ or Mg2+ (ThermoFisher Scientific 14190144), and then lysed in RIPA buffer (50 mM Tris-HCl pH 7.5, 1% Igepal, 0.5% sodium deoxycholate, 150 mM NaCl. and 0.5% sodium dodecyl sulfate) containing protease inhibitors (Roche 4693132001) and phosphatase inhibitors (Roche 4906837001). Phosphorylation of ERK1/2 in compound-treated lysates was assayed using Phospho-ERK1/2 Whole Cell Lysate kits (Meso Scale Discovery K151DWD) according to the manufacturer's protocol.
# [2] = tested on: Phosphorylation of ERK1/2 in MIA PaCa-2 cells; experiment: Phospho-ERK1/2 MSD assay in MIA PaCa-2 cells; type: cell-based; conditions: read-out: p-ERK IC50 (2 h, MiaPaCa-2; μM)
# Procedure: as §1
# as §2, with “Sixteen” for “MIA PaCa-2 (ATCC® CRL-1420™) and A549 (ATCC® CCL-185™) cells were cultured in RPMI 1640 Medium (ThermoFisher Scientific 11875093) containing 10% fetal bovine serum (ThermoFisher Scientific 16000044) and 1× penicillin-streptomycin-glutamine (ThermoFisher Scientific 10378016). Sixteen”
# [3] = Homo sapiens, A549, 2 h, 2 h compound treatment, A549 cells, EGF stimulated
# [4] = Homo sapiens, MIA PaCa-2, 2 h, 2 h compound treatment, MIA PaCa-2 cells, EGF stimulated
# [5] = 2 h compound treatment, MIA PaCa-2 cells, EGF stimulated
# [6] = 2 h compound treatment, A549 cells, EGF stimulated
Compound,"IC50 [1, 3]","IC50 [2, 4]","IC50 [2, 5]","IC50 [1, 6]",further results
"C=CC(=O)N1C[C@H](C)N(c2nc(=O)n(-c3c(C)ccnc3C(C)C)c3nc(C4=CCCCC4)c(Cl)cc23)C[C@H]1C (atropisomer, axis not shown; (M)) [Example 92-6, (M)-6-Chloro-7-(cyclohexen-1-yl)-4-[(2S,5R)-2,5-dimethyl-4-prop-2-enoyl-piperazin-1-yl]-1-(2-isopropyl-4-methyl-3-pyridyl)pyrido [2,3-d]pyrimidin-2-one]",> 7.5 µM,0.237 µM,–,–,–
"C=CC(=O)N1C[C@H](C)N(c2nc(=O)n(-c3c(C)ccnc3C(C)C)c3nc(-c4cc(C)sc4C)c(Cl)cc23)C[C@H]1C (atropisomer, axis not shown; (M)) [Example 92-7, (M)-6-Chloro-4-[(2S,5R)-2,5-dimethyl-4-prop-2-enoyl-piperazin-1-yl]-7-(2,5-dimethyl-3-thienyl)-1-(2-isopropyl-4-methyl-3-pyridyl)pyrido [2,3-d]pyrimidin-2-one]",> 7.5 µM,0.259 µM,–,–,–
"C=CC(=O)N1C[C@H](C)N(c2nc(=O)n(-c3c(C)ccnc3C(C)C)c3nc(-c4cc(F)c(F)c(F)c4N)c(Cl)cc23)C[C@H]1C (atropisomer, axis not shown; (M)) [Example 92-38, (M)-7-(2-Amino-3,4,5-trifluoro-phenyl)-6-chloro-4-[(2S,5R)-2,5-dimethyl-4-prop-2-enoyl-piperazin-1-yl]-1-(2-isopropyl-4-methyl-3-pyridyl)pyrido [2,3-d]pyrimidin-2-one]",> 7.5 µM,0.042 µM,–,–,–
"C=CC(=O)N1C[C@H](C)N(c2nc(=O)n(-c3c(C)ccnc3C(C)C)c3nc(-c4ccccc4CO)c(F)cc23)C[C@H]1C (atropisomer, axis not shown; (M)) [Example 94-2, (M)-4-[(2S,5R)-2,5-dimethyl-4-prop-2-enoyl-piperazin-1-yl]-6-fluoro-7-[2-(hydroxymethyl)phenyl]-1-(2-isopropyl-4-methyl-3-pyridyl)pyrido [2,3-d]pyrimidin-2-one]",–,–,–,–,"IC50 ([1]; Homo sapiens, A549, 2 h): > 7.5 µM; IC50 ([2]; Homo sapiens, MIA PaCa-2, 2 h): 0.204 µM"
"C=CC(=O)N1C[C@H](C)N(c2nc(=O)n(-c3c(C)ccnc3C(C)C)c3nc(-c4c(F)cccc4[S+](C)[O-])c(Cl)cc23)C[C@H]1C (atropisomer, axis not shown; (M)) [Example 211-1, (M)-4-((2S,5R)-4-Acryloyl-2,5-dimethylpiperazin-1-yl)-6-chloro-7-(2-fluoro-6-(methylsulfinyl)phenyl)-1-(2-isopropyl-4-methylpyridin-3-yl)pyrido[2,3-d]pyrimidin-2(1H)-one]",> 7.5 µM,–,0.128 µM,–,–
"C=CC(=O)N1C[C@H](C)N(c2nc(=O)n(-c3c(C)ccnc3C(C)C)c3nc(-c4c(F)cccc4[S+](C)[O-])c(Cl)cc23)C[C@H]1C (atropisomer, axis not shown; (M)) [Example 211-2, (M)-4-((2S,5R)-4-Acryloyl-2,5-dimethylpiperazin-1-yl)-6-chloro-7-(2-fluoro-6-(methylsulfinyl)phenyl)-1-(2-isopropyl-4-methylpyridin-3-yl)pyrido[2,3-d]pyrimidin-2(1H)-one]",–,–,0.106 µM,> 7.5 µM,–
"C=CC(=O)N1C[C@H](C)N(c2nc(=O)n(-c3c(C)ccnc3C(C)C)c3nc(-c4c(F)cccc4[S+](C)[O-])c(Cl)cc23)C[C@H]1C (atropisomer, axis not shown; (M)) [Example 211-3, (M)-4-((2S,5R)-4-Acryloyl-2,5-dimethylpiperazin-1-yl)-6-chloro-7-(2-fluoro-6-(methylsulfinyl)phenyl)-1-(2-isopropyl-4-methylpyridin-3-yl)pyrido[2,3-d]pyrimidin-2(1H)-one]",–,–,0.253 µM,> 7.5 µM,–
"C=CC(=O)N1C[C@H](C)N(c2nc(=O)n(-c3c(C)ccnc3C(C)C)c3nc(-c4ccccc4[S+](C)[O-])c(Cl)cc23)C[C@H]1C (atropisomer, axis not shown; (M)) [Example 212-1, (M)-4-((2S,5R)-4-Acryloyl-2,5-dimethylpiperazin-1-yl)-6-chloro-1-(2-isopropyl-4-methylpyridin-3-yl)-7-(2-(methylsulfinyl)phenyl)pyrido[2,3-d]pyrimidin-2(1H)-one]",> 7.5 µM,–,0.705 µM,–,–
"C=CC(=O)N1C[C@H](C)N(c2nc(=O)n(-c3c(C)ccnc3C(C)C)c3nc(-c4ccccc4[S+](C)[O-])c(Cl)cc23)C[C@H]1C (atropisomer, axis not shown; (M)) [Example 212-2, (M)-4-((2S,5R)-4-Acryloyl-2,5-dimethylpiperazin-1-yl)-6-chloro-1-(2-isopropyl-4-methylpyridin-3-yl)-7-(2-(methylsulfinyl)phenyl)pyrido[2,3-d]pyrimidin-2(1H)-one]",–,–,0.237 µM,> 7.5 µM,–
"C=CC(=O)N1C[C@H](C)N(c2nc(=O)n(-c3c(C)ccnc3C(C)C)c3nc(-c4c(F)cccc4S(C)(=O)=O)c(Cl)cc23)C[C@H]1C (atropisomer, axis not shown; (M)) [Example 214, (M)-4-((2S,5R)-4-Acryloyl-2,5-dimethylpiperazin-1-yl)-6-chloro-7-(2-fluoro-6-(methylsulfonyl)phenyl)-1-(2-isopropyl-4-methylpyridin-3-yl)pyrido[2,3-d]pyrimidin-2(1H)-one]",–,–,0.025 µM,> 7.5 µM,–
"C=CC(=O)N1C[C@H](C)N(c2nc(=O)n(-c3c(C)ccnc3C(C)C)c3nc(-c4c(F)cccc4S(C)(=O)=O)c(Cl)cc23)C[C@H]1C (atropisomer, axis not shown; (M)) [Example 214-1, (M)-4-((2S,5R)-4-Acryloyl-2,5-dimethylpiperazin-1-yl)-6-chloro-7-(2-fluoro-6-(methylsulfonyl)phenyl)-1-(2-isopropyl-4-methylpyridin-3-yl)pyrido[2,3-d]pyrimidin-2(1H)-one]",> 7.5 µM,0.03 µM,–,–,–
"C=CC(=O)N1C[C@H](C)N(c2nc(=O)n(-c3c(C)ccnc3C(C)C)c3nc(-c4cc(S(C)(=O)=O)ccc4F)c(Cl)cc23)C[C@H]1C (atropisomer, axis not shown; (M)) [Example 223, (M)-4-((2S,5R)-4-Acryloyl-2,5-dimethylpiperazin-1-yl)-6-chloro-7-(2-fluoro-5-(methylsulfonyl)phenyl)-1-(2-isopropyl-4-methylpyridin-3-yl)pyrido[2,3-d]pyrimidin-2(1H)-one]",> 7.5 µM,0.659 µM,–,–,–
"C=CC(=O)N1C[C@H](C)N(c2nc(=O)n(-c3c(C)cncc3C(C)C)c3nc(-c4ccccc4F)c(Cl)cc23)C[C@H]1C (single isomer, unassigned) [Example 100-8]",> 7.5 µM,0.042 µM,–,–,–
"C=CC(=O)N1C[C@H](C)N(c2nc(=O)n(-c3c(C(C)C)ccnc3C(C)C)c3nc(-c4ccccc4Cl)c(Cl)cc23)C[C@H]1C (single isomer, unassigned) [Example 124-6]",> 7.5 µM,0.062 µM,–,–,–
"C=CC(=O)N1C[C@H](C)N(c2nc(=O)n(-c3c(C(C)C)ccnc3C(C)C)c3nc(-c4ccccc4C)c(Cl)cc23)C[C@H]1C (single isomer, unassigned) [Example 125-2]",–,–,0.038 µM,> 7.5 µM,–
"C=CC(=O)N1C[C@H](C)N(c2nc(=O)n(-c3c(C(C)C)ccnc3C(C)C)c3nc(-c4ccccc4C(F)(F)F)c(Cl)cc23)C[C@H]1C (single isomer, unassigned) [Example 125-3]",–,–,0.041 µM,> 7.5 µM,–
"C=CC(=O)N1C[C@H](C)N(c2nc(=O)n(-c3c(C(C)C)ccnc3C(C)C)c3nc(-c4c(O)cccc4F)c(Cl)cc23)C[C@H]1C (single isomer, unassigned) [Example 125-4]",–,–,0.023 µM,> 7.5 µM,–
